Measured values reported in patent publication US20240092835A1, “NOVEL PEPTIDES CAPABLE OF ALTERING NK CELL ACTIVITY” (Massachusetts Institute of Technology, priority 2022, published 2024).
Where no end group is shown, it is not given here.

Assays:
NKG2A−/NKG2C+ NK cells = assay: NK cell activation markers in NKG2A-/NKG2C+ NK cells incubated with peptide and K562 expressing HLA-E (activation); assay type: cell-based, human; settings: for percentage of CCL3+ NK cells / percentage of CD107+ NK cells / percentage of IFNG+ NK cells / percentage of TNF+ NK cells: NKG2A-/NKG2C+ NK cells, K562/HLA-E
Summary of the method: (§1)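 Percent-positive cells for NK activation surface markers were measured after NK cells met peptide-treated K562 cells expressing HLA-E. A decrease in that fraction was scored as inhibition and an increase as activation; NKG2A−/NKG2C− cells served as controls.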

NKG2A−/NKG2C− NK cells = assay: NK cell activation markers in control NKG2A-/NKG2C- NK cells incubated with peptide and K562 expressing HLA-E; assay type: cell-based, human
Summary of the method: as §1

HLA-E = target: T1, HLA-E (Homo sapiens, UniProt P13747); assay: HLA-E surface stabilization assay with RMA-S/HLA-E cells; assay type: cell-based; settings: 30 μM peptide, 16 hours; for HLA-E surface expression stability (GeoMFI): anti-HLA-E antibody
T1 construct: expressed in transfected cells; host or cells: RMA-S/HLA-E cells (antigen processing-defective lymphoma cell line)
Experimental: HLA-E surface expression was assessed by measuring geometric mean fluorescence intensity (GeoMFI) in RMA-S cells following immunofluorescence staining with an anti-HLA-E antibody (Table 14). Increased GeoMFI was indicative of increased HLA-E surface expression stability following novel peptide exposures (FIG. 3).

CD94/NKG2C = CD94/NKG2C (Homo sapiens, UniProt P26717+Q13241); assay: Steady-state surface plasmon resonance of peptide-HLA-E complex with CD94/NKG2C; assay type: binding; settings: for Binding of peptide-HLA-E complexes to CD94/NKG2C normalized to a theoretical Rmax: steady-state SPR
Experimental: Binding affinity of novel peptides linked to HLA-E was determined using surface plasmon resonance (SPR), a methodology used to study protein-protein interactions (Tables 15-19). The peptide-HLA-E complex (generated as a single chain trimer) was immobilized on the sensor chip surface and CD94/NKG2A or CD94/NKG2C were flowed over. Steady-state surface plasmon resonance experiments were performed with a Biacore T200 instrument. CD94/NKG2x in HBS-EP+ buffer was injected as analyte in a concentration range of 0.1 μM to 102.4 μM and flow rate of 10 μL/min at 25° C. Data was fit with Prism 9.4 (GraphPad Software Inc; San Diego CA) to a “one site, specific binding” model. Series S CM5 chips were coupled to neutravidin and utilized. Biotinylated pMHC was immobilized at approximately 400 RU. KD values calculated by Biacore software are reported. Rmax, fit values were calculated by Biacore software. Rmax, theoretical values were calculated using the analyte/ligand mass ratio (0.66) multiplied by the amount of ligand coupled to the chip.

Sequence of CD94/NKG2C (P26717 94-231 limits assumed): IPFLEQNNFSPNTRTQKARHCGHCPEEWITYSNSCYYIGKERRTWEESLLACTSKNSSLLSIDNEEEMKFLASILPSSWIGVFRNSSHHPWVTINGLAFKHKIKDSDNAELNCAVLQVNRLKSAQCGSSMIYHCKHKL
Sequence of CD94/NKG2C (Q13241 32-179 limits assumed): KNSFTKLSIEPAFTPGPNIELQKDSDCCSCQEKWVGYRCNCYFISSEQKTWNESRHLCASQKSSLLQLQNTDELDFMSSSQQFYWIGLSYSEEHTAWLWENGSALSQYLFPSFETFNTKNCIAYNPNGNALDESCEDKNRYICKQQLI
T1 sequence (P13747 22-358): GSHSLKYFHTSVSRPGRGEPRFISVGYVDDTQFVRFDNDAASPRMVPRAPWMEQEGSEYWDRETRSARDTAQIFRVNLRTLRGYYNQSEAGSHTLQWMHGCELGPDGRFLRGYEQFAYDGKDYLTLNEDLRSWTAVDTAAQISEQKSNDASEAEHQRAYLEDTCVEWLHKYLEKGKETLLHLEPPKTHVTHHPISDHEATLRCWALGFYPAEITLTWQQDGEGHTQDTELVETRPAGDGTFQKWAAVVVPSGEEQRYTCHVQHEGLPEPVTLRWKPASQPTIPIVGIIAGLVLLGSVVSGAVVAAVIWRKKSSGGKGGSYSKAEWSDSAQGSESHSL
T1 sequence (P61769 21-119 partner): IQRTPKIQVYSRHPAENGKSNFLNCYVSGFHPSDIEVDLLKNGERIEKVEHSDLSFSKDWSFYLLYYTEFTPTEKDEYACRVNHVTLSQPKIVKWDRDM

TLPKRGLFL [human2, TLPKRGLFL]
effect on NKG2A−/NKG2C+ NK cell activation (in words) (NKG2A−/NKG2C+ NK cells; K562 expressing HLA-E, CD107a, IFNG, TNF, CCL3): strong activating effects | percentage of CCL3+ NK cells (NKG2A−/NKG2C+ NK cells; Trial 1): 80.9% | percentage of CD107+ NK cells (NKG2A−/NKG2C+ NK cells; Trial 1): 80% | percentage of IFNG+ NK cells (NKG2A−/NKG2C+ NK cells; Trial 1): 69.5% | percentage of TNF+ NK cells (NKG2A−/NKG2C+ NK cells; Trial 1): 57.3% | percentage of CCL3+ NK cells (NKG2A−/NKG2C+ NK cells; Trial 2): 92.4% | percentage of CD107+ NK cells (NKG2A−/NKG2C+ NK cells; Trial 2): 87.3% | percentage of IFNG+ NK cells (NKG2A−/NKG2C+ NK cells; Trial 2): 82.3% | percentage of TNF+ NK cells (NKG2A−/NKG2C+ NK cells; Trial 2): 72.6% | percentage of CCL3+ NK cells (NKG2A−/NKG2C+ NK cells; Trial 3): 86.1% | percentage of CD107+ NK cells (NKG2A−/NKG2C+ NK cells; Trial 3): 88.3% | percentage of IFNG+ NK cells (NKG2A−/NKG2C+ NK cells; Trial 3): 83% | percentage of TNF+ NK cells (NKG2A−/NKG2C+ NK cells; Trial 3): 73.8% | percentage of CCL3+ NK cells (NKG2A−/NKG2C+ NK cells; Trial 4): 71.8% | percentage of CD107+ NK cells (NKG2A−/NKG2C+ NK cells; Trial 4): 71.7% | percentage of IFNG+ NK cells (NKG2A−/NKG2C+ NK cells; Trial 4): 64.5% | percentage of TNF+ NK cells (NKG2A−/NKG2C+ NK cells; Trial 4): 56.2% | percentage of CCL3+ NK cells (NKG2A−/NKG2C+ NK cells; Trial 5): 75.8% | percentage of CD107+ NK cells (NKG2A−/NKG2C+ NK cells; Trial 5): 69.9% | percentage of IFNG+ NK cells (NKG2A−/NKG2C+ NK cells; Trial 5): 63.2% | percentage of TNF+ NK cells (NKG2A−/NKG2C+ NK cells; Trial 5): 57.8% | percentage of CCL3+ NK cells (NKG2A−/NKG2C+ NK cells; Trial 6): 62.1% | percentage of CD107+ NK cells (NKG2A−/NKG2C+ NK cells; Trial 6): 59.3% | percentage of IFNG+ NK cells (NKG2A−/NKG2C+ NK cells; Trial 6): 50.7% | percentage of TNF+ NK cells (NKG2A−/NKG2C+ NK cells; Trial 6): 41.1% | percentage CCL3+ NK cells (NKG2A−/NKG2C− NK cells; Trial 1): 31.9% | percentage CD107+ NK cells (NKG2A−/NKG2C− NK cells; Trial 1): 26.1% | percentage TNF+ NK cells (NKG2A−/NKG2C− NK cells; Trial 1): 4.12% | percentage of IFNG+ NK cells (NKG2A−/NKG2C− NK cells; Trial 1): 16.2% | percentage CCL3+ NK cells (NKG2A−/NKG2C− NK cells; Trial 2): 57.4% | percentage CD107+ NK cells (NKG2A−/NKG2C− NK cells; Trial 2): 34.1% | percentage TNF+ NK cells (NKG2A−/NKG2C− NK cells; Trial 2): 8.51% | percentage of IFNG+ NK cells (NKG2A−/NKG2C− NK cells; Trial 2): 24.9% | percentage CCL3+ NK cells (NKG2A−/NKG2C− NK cells; Trial 3): 49.9% | percentage CD107+ NK cells (NKG2A−/NKG2C− NK cells; Trial 3): 46.1% | percentage TNF+ NK cells (NKG2A−/NKG2C− NK cells; Trial 3): 15.8% | percentage of IFNG+ NK cells (NKG2A−/NKG2C− NK cells; Trial 3): 37.4% | percentage CCL3+ NK cells (NKG2A−/NKG2C− NK cells; Trial 4): 34.8% | percentage CD107+ NK cells (NKG2A−/NKG2C− NK cells; Trial 4): 30.1% | percentage TNF+ NK cells (NKG2A−/NKG2C− NK cells; Trial 4): 9.02% | percentage of IFNG+ NK cells (NKG2A−/NKG2C− NK cells; Trial 4): 18.9% | percentage CCL3+ NK cells (NKG2A−/NKG2C− NK cells; Trial 5): 25.6% | percentage CD107+ NK cells (NKG2A−/NKG2C− NK cells; Trial 5): 18.1% | percentage TNF+ NK cells (NKG2A−/NKG2C− NK cells; Trial 5): 6.52% | percentage of IFNG+ NK cells (NKG2A−/NKG2C− NK cells; Trial 5): 13.9% | percentage CCL3+ NK cells (NKG2A−/NKG2C− NK cells; Trial 6): 24.6% | percentage CD107+ NK cells (NKG2A−/NKG2C− NK cells; Trial 6): 19.1% | percentage TNF+ NK cells (NKG2A−/NKG2C− NK cells; Trial 6): 5.25% | percentage of IFNG+ NK cells (NKG2A−/NKG2C− NK cells; Trial 6): 10% | HLA-E surface expression stabilization strength (in words) (HLA-E): moderate | HLA-E surface expression stability (GeoMFI) (HLA-E; Trial 1): 2019 GeoMFI | HLA-E surface expression stability (GeoMFI) (HLA-E; Trial 2): 2029 GeoMFI | HLA-E surface expression stability (GeoMFI) (HLA-E; Trial 3): 1731 GeoMFI | HLA-E surface expression stability (GeoMFI) (HLA-E; Trial 4): 2795 GeoMFI | HLA-E surface expression stabilization strength, approximate GeoMFI (HLA-E; approximate value): approximately 2×10^3 GeoMFI | binding of peptide-HLA-E complex to CD94/NKG2C normalized to a fitted Rmax (CD94/NKG2C; CD94/NKG2C concentration 0 μM): −0.005 | binding of peptide-HLA-E complex to CD94/NKG2C normalized to a fitted Rmax (CD94/NKG2C; CD94/NKG2C concentration 0.1 μM): 0.003 | binding of peptide-HLA-E complex to CD94/NKG2C normalized to a fitted Rmax (CD94/NKG2C; CD94/NKG2C concentration 0.2 μM): 0.009 | binding of peptide-HLA-E complex to CD94/NKG2C normalized to a fitted Rmax (CD94/NKG2C; CD94/NKG2C concentration 0.4 μM): 0.023 | binding of peptide-HLA-E complex to CD94/NKG2C normalized to a fitted Rmax (CD94/NKG2C; CD94/NKG2C concentration 0.8 μM): 0.046 | binding of peptide-HLA-E complex to CD94/NKG2C normalized to a fitted Rmax (CD94/NKG2C; CD94/NKG2C concentration 1.6 μM): 0.089 | binding of peptide-HLA-E complex to CD94/NKG2C normalized to a fitted Rmax (CD94/NKG2C; CD94/NKG2C concentration 3.2 μM): 0.168 | binding of peptide-HLA-E complex to CD94/NKG2C normalized to a fitted Rmax (CD94/NKG2C; CD94/NKG2C concentration 6.4 μM): 0.281 | binding of peptide-HLA-E complex to CD94/NKG2C normalized to a fitted Rmax (CD94/NKG2C; CD94/NKG2C concentration 12.8 μM): 0.443 | binding of peptide-HLA-E complex to CD94/NKG2C normalized to a fitted Rmax (CD94/NKG2C; CD94/NKG2C concentration 25.6 μM): 0.621 | binding of peptide-HLA-E complex to CD94/NKG2C normalized to a fitted Rmax (CD94/NKG2C; CD94/NKG2C concentration 51.2 μM): 0.755 | binding of peptide-HLA-E complex to CD94/NKG2C normalized to a fitted Rmax (CD94/NKG2C; CD94/NKG2C concentration 102.4 μM): 0.867 | Binding of peptide-HLA-E complexes to CD94/NKG2C normalized to a theoretical Rmax (CD94/NKG2C; CD94/NKG2C analyte concentration 0 μM): −0.003 | Binding of peptide-HLA-E complexes to CD94/NKG2C normalized to a theoretical Rmax (CD94/NKG2C; CD94/NKG2C analyte concentration 0.1 μM): 0.002 | Binding of peptide-HLA-E complexes to CD94/NKG2C normalized to a theoretical Rmax (CD94/NKG2C; CD94/NKG2C analyte concentration 0.2 μM): 0.007 | Binding of peptide-HLA-E complexes to CD94/NKG2C normalized to a theoretical Rmax (CD94/NKG2C; CD94/NKG2C analyte concentration 0.4 μM): 0.017 | Binding of peptide-HLA-E complexes to CD94/NKG2C normalized to a theoretical Rmax (CD94/NKG2C; CD94/NKG2C analyte concentration 0.8 μM): 0.034 | Binding of peptide-HLA-E complexes to CD94/NKG2C normalized to a theoretical Rmax (CD94/NKG2C; CD94/NKG2C analyte concentration 1.6 μM): 0.066 | Binding of peptide-HLA-E complexes to CD94/NKG2C normalized to a theoretical Rmax (CD94/NKG2C; CD94/NKG2C analyte concentration 3.2 μM): 0.124 | Binding of peptide-HLA-E complexes to CD94/NKG2C normalized to a theoretical Rmax (CD94/NKG2C; CD94/NKG2C analyte concentration 6.4 μM): 0.207 | Binding of peptide-HLA-E complexes to CD94/NKG2C normalized to a theoretical Rmax (CD94/NKG2C; CD94/NKG2C analyte concentration 12.8 μM): 0.326 | Binding of peptide-HLA-E complexes to CD94/NKG2C normalized to a theoretical Rmax (CD94/NKG2C; CD94/NKG2C analyte concentration 25.6 μM): 0.457 | Binding of peptide-HLA-E complexes to CD94/NKG2C normalized to a theoretical Rmax (CD94/NKG2C; CD94/NKG2C analyte concentration 51.2 μM): 0.555 | Binding of peptide-HLA-E complexes to CD94/NKG2C normalized to a theoretical Rmax (CD94/NKG2C; CD94/NKG2C analyte concentration 102.4 μM): 0.638
